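The compound was tested at five concentrations on cells cultured in 96-well plates, with a 48-hour exposure period. GI50 marks 50% less growth.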 Active and inactive are the calls of the source. Cut-off read from the data, not from the text of the source: active = GI50 up to about 1.1 µM and inactive = higher.
What was measured:
Assay in all cases: NCI-60 cell line screen, 48 h
[1] = tested on: SF-539
[2] = tested on: HCT-15
[3] = tested on: NCI-H460
[4] = tested on: M14
[5] = tested on: HCT-116
[6] = tested on: HOP-92
[7] = tested on: RPMI-8226
[8] = tested on: K562
[9] = tested on: MOLT-4
[10] = tested on: SNB-75
[11] = tested on: OVCAR-5
[12] = tested on: NCI-H522
[13] = tested on: KM12
[14] = tested on: SW-620
[15] = tested on: COLO 205
[16] = tested on: SNB-19
[17] = tested on: SK-MEL-5
[18] = tested on: CCRF-CEM
[19] = tested on: EKVX

| SMILES | GI50 [1] | GI50 [2] [µM] | GI50 [3] | GI50 [4] | GI50 [5] | GI50 [6] | GI50 [7] | GI50 [8] | GI50 [9] | GI50 [10] | GI50 [11] | GI50 [12] | GI50 [13] | GI50 [14] | GI50 [15] | GI50 [16] | GI50 [17] | GI50 [18] | GI50 [19] |
| --- | --- | --- | --- | --- | --- | --- | --- | --- | --- | --- | --- | --- | --- | --- | --- | --- | --- | --- | --- |
| O=C1C(=O)N(c2ccc(Cl)cc2)C(=O)C(=O)C1c1nc2ccccc2o1 | > 100 µM (inactive) | > 100 | > 100 µM (inactive) | > 100 µM (inactive) | > 100 µM (inactive) | > 100 µM (inactive) | > 100 µM (inactive) | > 100 µM (inactive) | > 100 µM (inactive) | > 100 µM (inactive) | > 100 µM (inactive) | > 100 µM (inactive) | > 100 µM (inactive) | > 100 µM (inactive) | > 100 µM (inactive) | > 100 µM (inactive) | > 100 µM (inactive) | > 100 µM (inactive) | > 100 µM (inactive) |
| N#Cc1cc([N+](=O)[O-])ccc1NC(=O)C(=O)C(C(=O)c1ccc2ccccc2c1)C1OCc2ccccc21 (stereo not given) | 1.82 µM (inactive) | 7.8 | 4.38 µM (inactive) | 15.1 µM (inactive) | 5.01 µM (inactive) | 7.01 µM (inactive) | 5.2 µM (inactive) | 6.25 µM (inactive) | 2.18 µM (inactive) | 4.23 µM (inactive) | 14.2 µM (inactive) | 7.29 µM (inactive) | 15.4 µM (inactive) | 6.27 µM (inactive) | 9.4 µM (inactive) | 6.9 µM (inactive) | 9.06 µM (inactive) | 3.92 µM (inactive) | 16.4 µM (inactive) |
| ClCCN(CC#CCCCC#CCN(CCCl)CCCl)CCCl | 8.36 µM (inactive) | 12.4 | 2.73 µM (inactive) | 14.5 µM (inactive) | 10.4 µM (inactive) | 18.4 µM (inactive) | 2.79 µM (inactive) | 11 µM (inactive) | 1.66 µM (inactive) | 10.3 µM (inactive) | 11.7 µM (inactive) | 8.3 µM (inactive) | 19.2 µM (inactive) | 10.2 µM (inactive) | 15.6 µM (inactive) | 13.6 µM (inactive) | 11.3 µM (inactive) | 2.3 µM (inactive) | 22.8 µM (inactive) |
| CCCCCCN(CCCCCC)C(=O)Cc1c2n(c3ccccc13)Cc1ccccc1-2 | > 100 µM (inactive) | 37.4 | 63.1 µM (inactive) | 44.8 µM (inactive) | 29.6 µM (inactive) | 10.6 µM (inactive) | 28.8 µM (inactive) | 33.4 µM (inactive) | 33.3 µM (inactive) | > 100 µM (inactive) |  | 32.5 µM (inactive) | 42.1 µM (inactive) | 49.5 µM (inactive) | 58.5 µM (inactive) | 80.7 µM (inactive) | 41.4 µM (inactive) | 28.1 µM (inactive) | 69.8 µM (inactive) |
| N#CC1(Cc2ccc(N)cc2)c2ccccc2C=CN1C(=O)c1ccccc1 (stereo not given) | 60.5 µM (inactive) |  |  | 25.6 µM (inactive) | 54 µM (inactive) | 33.6 µM (inactive) | 35.2 µM (inactive) | 26.5 µM (inactive) | 28.9 µM (inactive) | 29.3 µM (inactive) | > 100 µM (inactive) | 60.1 µM (inactive) | 47.5 µM (inactive) | 68.2 µM (inactive) | 27.3 µM (inactive) | 41.8 µM (inactive) | 21.8 µM (inactive) | 29 µM (inactive) | 38.7 µM (inactive) |
| CCCN(CCC)C(=O)C(=O)c1c(N)[nH]n(-c2ccccc2)c1=O | > 100 µM (inactive) | > 100 | > 100 µM (inactive) | > 100 µM (inactive) | > 100 µM (inactive) | > 100 µM (inactive) | > 100 µM (inactive) | 43.5 µM (inactive) | > 100 µM (inactive) |  | > 100 µM (inactive) | > 100 µM (inactive) | 96.4 µM (inactive) | > 100 µM (inactive) | > 100 µM (inactive) | > 100 µM (inactive) | > 100 µM (inactive) | 93.3 µM (inactive) | > 100 µM (inactive) |
